Here are results for 40 compounds from patent US20250059220A1, “SUBSTITUTED BENZOTHIOPHENE DERIVATIVES AND METHODS OF USE THEREOF” (Merck Sharp & Dohme LLC, priority 2021, published 2025).

The term IC50 denotes the concentration at which inhibition is half-maximal.

Assay [1] has as its target human PTPN2 (1-387) (Homo sapiens (Human), UniProt P17706). Nature of the assay: Human PTPN2 Biochemical Assay. To be noted: DiFMUP substrate. Summed up:
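Human PTPN2 (1-387) preincubated 30 min at RT with compound (10-point 3-fold series) in Tris pH 7.4 buffer with 0.5 mM DTT, then DiFMUP substrate added for 1 h at RT. Fluorescence at ex 360/em 460 nm, normalised to no-enzyme and enzyme controls; EC50 from 4-parameter fit.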

For assay [2], the target named is human PTPN1 (1-435) (Homo sapiens (Human), UniProt P18031). Nature of the assay: Human PTPN1 Biochemical Assay. To be noted: DiFMUP substrate, read-out: PTP1B IC50. The gist of the method: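 Read-out is DiFMUP hydrolysis fluorescence (360 nm excitation, 460 nm emission) after 1 h at room temperature, following 30 min enzyme–compound preincubation.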
Chain of human PTPN1 (1-435) (P18031 whole entry): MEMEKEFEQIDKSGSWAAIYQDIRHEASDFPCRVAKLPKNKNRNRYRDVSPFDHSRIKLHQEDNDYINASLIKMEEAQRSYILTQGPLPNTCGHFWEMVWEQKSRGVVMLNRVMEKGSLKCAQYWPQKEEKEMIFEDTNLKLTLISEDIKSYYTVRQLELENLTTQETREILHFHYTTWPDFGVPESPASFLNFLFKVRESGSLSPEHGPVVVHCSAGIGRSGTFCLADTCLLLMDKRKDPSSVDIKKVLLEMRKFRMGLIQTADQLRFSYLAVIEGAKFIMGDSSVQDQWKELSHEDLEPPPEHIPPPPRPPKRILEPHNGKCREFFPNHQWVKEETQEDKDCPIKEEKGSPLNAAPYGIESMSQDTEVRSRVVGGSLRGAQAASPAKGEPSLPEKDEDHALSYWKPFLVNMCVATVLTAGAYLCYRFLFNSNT

Chain of human PTPN2 (1-387) (P17706 other isoform, or with tags, fused parts or gaps): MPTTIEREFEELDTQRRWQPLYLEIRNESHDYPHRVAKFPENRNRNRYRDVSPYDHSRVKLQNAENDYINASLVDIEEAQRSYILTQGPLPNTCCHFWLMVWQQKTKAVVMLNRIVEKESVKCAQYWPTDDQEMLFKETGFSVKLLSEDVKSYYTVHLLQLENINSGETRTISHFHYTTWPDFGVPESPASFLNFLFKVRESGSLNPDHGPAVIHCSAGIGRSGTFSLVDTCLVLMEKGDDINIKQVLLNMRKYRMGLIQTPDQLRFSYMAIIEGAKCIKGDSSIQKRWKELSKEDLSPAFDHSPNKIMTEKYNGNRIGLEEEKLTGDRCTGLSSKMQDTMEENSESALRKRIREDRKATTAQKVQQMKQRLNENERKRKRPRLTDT

In the case of `Cn1cc(NC(=O)c2ccc3sc(C(F)(F)P(=O)(O)O)c(Br)c3c2)cn1` [Compound 96], the IC50 in assay [1] is 1.28 µM; in assay [2], 0.94 µM.

Take `O=C(N[C@H]1CCCNC1=O)c1ccc2sc(C(F)(F)P(=O)(O)O)c(Br)c2c1` [Compound 97]: the concentration for half-maximal inhibition (IC50) in assay [1] turned out to be 8.23 µM; in assay [2], 7.08 µM.

As to `CC1CCCC(NC(=O)c2ccc3sc(C(F)(F)P(=O)(O)O)c(Br)c3c2)C1` (centres unmarked) [Compound 98], the results for the IC50 in assay [1] and in assay [2] were 4.73 µM and 4.57 µM, respectively.

Regarding `CCn1nccc1NC(=O)c1ccc2sc(C(F)(F)P(=O)(O)O)c(Br)c2c1` [Compound 99], the IC50 in assay [1] was determined as 3.79 µM; in assay [2], 2.62 µM.

As for `O=C(Nc1ccc(Sc2ccccc2)nc1)c1ccc2sc(C(F)(F)P(=O)(O)O)c(Br)c2c1` [Compound 100], the results for the IC50 in assay [1] and in assay [2] were 0.682 µM and 0.54 µM, respectively.

In the case of `O=C(Nc1cccc(C(=O)N2CCCC2)c1)c1ccc2sc(C(F)(F)P(=O)(O)O)c(Br)c2c1` [Compound 101], the IC50 in assay [1] was found to be 2.36 µM; in assay [2], 1.78 µM.

Turning to `CC(NC(=O)c1ccc2sc(C(F)(F)P(=O)(O)O)c(Br)c2c1)c1cccc(OC(F)(F)F)c1` (centres unmarked) [Compound 102], the half-maximal inhibitory concentration (IC50) was found to be 2.46 µM in assay [1] and 2.88 µM in assay [2].

As to `CC(NC(=O)c1ccc2sc(C(F)(F)P(=O)(O)O)c(Br)c2c1)c1cnccn1` (centres unmarked) [Compound 103], the figures for the IC50 in assay [1] and in assay [2] were 3.46 µM and 3.14 µM, respectively.

With `O=C(Nc1cccc(CO)n1)c1ccc2sc(C(F)(F)P(=O)(O)O)c(Br)c2c1` [Compound 104], the concentration for half-maximal inhibition (IC50) in assay [1] is 6.5 µM; in assay [2], 9.15 µM.

On to `CCC(NC(=O)c1ccc2sc(C(F)(F)P(=O)(O)O)c(Br)c2c1)c1nccs1` (centres unmarked) [Compound 105], for which the results for the IC50 in assay [1] and in assay [2] were 5.78 µM and 5.14 µM, respectively.

Turning to `Cc1c(NC(=O)c2ccc3sc(C(F)(F)P(=O)(O)O)c(Br)c3c2)cccc1C(=O)N1CCCC1` [Compound 106], the IC50 in assay [1] amounted to 8.97 µM; in assay [2], 6.92 µM.

Take `COCCOc1cc(C)ccc1NC(=O)c1ccc2sc(C(F)(F)P(=O)(O)O)c(Br)c2c1` [Compound 107]: the half-maximal inhibitory concentration (IC50) stood at 4.03 µM in assay [1] and 3.86 µM in assay [2].

Consider `O=C(Nc1ccccc1OC1CCOCC1)c1ccc2sc(C(F)(F)P(=O)(O)O)c(Br)c2c1` [Compound 108], for which the IC50 stood at 3.62 µM in assay [1] and 4.08 µM in assay [2].

`O=C(Nc1cccc(-n2nccn2)c1)c1ccc2sc(C(F)(F)P(=O)(O)O)c(Br)c2c1` [Compound 109]: the IC50 stood at 0.78 µM in assay [1] and 0.465 µM in assay [2].

`O=C(NC1COc2ccccc2C1)c1ccc2sc(C(F)(F)P(=O)(O)O)c(Br)c2c1` (centres unmarked) [Compound 110]: the values for the IC50 in assay [1] and in assay [2] were 3.56 µM and 3.2 µM, respectively.

As for `O=C(NC1(c2cncc(C(F)(F)F)c2)CC1)c1ccc2sc(C(F)(F)P(=O)(O)O)c(Br)c2c1` [Compound 111], the IC50 came to 4.26 µM in assay [1] and 3.98 µM in assay [2].

As for `COCC(NC(=O)c1ccc2sc(C(F)(F)P(=O)(O)O)c(Br)c2c1)c1ccc(F)cc1` (centres unmarked) [Compound 112], the IC50 was determined as 2.91 µM in assay [1] and 3.68 µM in assay [2].

On to `CC(NC(=O)c1ccc2sc(C(F)(F)P(=O)(O)O)c(Br)c2c1)c1ccccc1-n1cccn1` (centres unmarked) [Compound 113], for which the figures for the IC50 in assay [1] and in assay [2] were 4.17 µM and 4.08 µM, respectively.

As to `O=C(NCC1CCCN(c2ncccn2)C1)c1ccc2sc(C(F)(F)P(=O)(O)O)c(Br)c2c1` (centres unmarked) [Compound 114], the values for the IC50 in assay [1] and in assay [2] were 5.17 µM and 3.5 µM, respectively.

Consider `O=C(NC1(c2cccc(F)c2)CCCC1)c1ccc2sc(C(F)(F)P(=O)(O)O)c(Br)c2c1` [Compound 115], for which the half-inhibitory concentration (IC50) in assay [1] is 2.6 µM; in assay [2], 3.62 µM.

As to `O=C(N[C@H]1CCN(C(=O)C2CC2)C1)c1ccc2sc(C(F)(F)P(=O)(O)O)c(Br)c2c1` [Compound 116], the IC50 in assay [1] worked out at 1.06 µM; in assay [2], 0.987 µM.

As to `O=C(NC(c1ccc(F)cc1)C(F)F)c1ccc2sc(C(F)(F)P(=O)(O)O)c(Br)c2c1` (centres unmarked) [Compound 117], the IC50 in assay [1] turned out to be 2.73 µM; in assay [2] it was 2.14 µM.

As to `Cc1cc(C)n(-c2ccccc2NC(=O)c2ccc3sc(C(F)(F)P(=O)(O)O)c(Br)c3c2)n1` [Compound 118], the 50% inhibitory concentration (IC50) in assay [1] turned out to be 6.17 µM; in assay [2], 5.91 µM.

`O=C(NCc1cnc2[nH]ccc2c1)c1ccc2sc(C(F)(F)P(=O)(O)O)c(Br)c2c1` [Compound 119]: the figures for the concentration for half-maximal inhibition (IC50) in assay [1] and in assay [2] were 0.63 µM and 0.404 µM, respectively.

Take `O=C(NCc1cccnc1C(F)(F)F)c1ccc2sc(C(F)(F)P(=O)(O)O)c(Br)c2c1` [Compound 120]: the half-maximal inhibitory concentration (IC50) was 4.99 µM in assay [1] and 3.79 µM in assay [2].

`O=C(NCc1ccc(C(F)(F)F)nc1)c1ccc2sc(C(F)(F)P(=O)(O)O)c(Br)c2c1` [Compound 121]: the values for the IC50 in assay [1] and in assay [2] were 3.1 µM and 2.31 µM, respectively.

For the compound `COc1ncccc1CNC(=O)c1ccc2sc(C(F)(F)P(=O)(O)O)c(Br)c2c1` [Compound 122], the IC50 in assay [1] worked out at 5.37 µM; in assay [2] it was 3.89 µM.

Consider `O=C(NCc1cnccn1)c1ccc2sc(C(F)(F)P(=O)(O)O)c(Br)c2c1` [Compound 123], for which the IC50 in assay [1] worked out at 4.29 µM; in assay [2], 3.56 µM.

With `Cc1nn(C)c(C)c1CNC(=O)c1ccc2sc(C(F)(F)P(=O)(O)O)c(Br)c2c1` [Compound 124], the IC50 turned out to be 7.38 µM in assay [1] and 6.12 µM in assay [2].

As to `COCCCNC(=O)c1ccc2sc(C(F)(F)P(=O)(O)O)c(Br)c2c1` [Compound 125], the IC50 worked out at 6.52 µM in assay [1] and 5.23 µM in assay [2].

As to `O=C(NCC1CNC1)c1ccc2sc(C(F)(F)P(=O)(O)O)c(Br)c2c1` [Compound 126], the IC50 in assay [1] was 6.11 µM; in assay [2], 5.23 µM.

On to `O=C(NC1CCCOC1)c1ccc2sc(C(F)(F)P(=O)(O)O)c(Br)c2c1` (centres unmarked) [Compound 127], for which the values for the 50% inhibitory concentration (IC50) in assay [1] and in assay [2] were 6.7 µM and 5.14 µM, respectively.

With `O=C(NC1CCS(=O)(=O)CC1)c1ccc2sc(C(F)(F)P(=O)(O)O)c(Br)c2c1` [Compound 128], the IC50 was 4.9 µM in assay [1] and 4.08 µM in assay [2].

For the compound `Cc1c[nH]c(CNC(=O)c2ccc3sc(C(F)(F)P(=O)(O)O)c(Br)c3c2)c(C)c1=O` [Compound 129], the concentration for half-maximal inhibition (IC50) in assay [1] worked out at 2.65 µM; in assay [2], 2.23 µM.

On to `C[C@@H](NC(=O)c1ccc2sc(C(F)(F)P(=O)(O)O)c(Br)c2c1)c1cccnn1` [Compound 130], for which the IC50 in assay [1] came to 1.22 µM; in assay [2] it was 1.09 µM.

`O=C1NC[C@@H](CNC(=O)c2ccc3sc(C(F)(F)P(=O)(O)O)c(Br)c3c2)N1` [Compound 131]: the IC50 in assay [1] was determined as 4.16 µM; in assay [2], 4.13 µM.

As to `O=C1NC[C@H](CNC(=O)c2ccc3sc(C(F)(F)P(=O)(O)O)c(Br)c3c2)N1` [Compound 132], the IC50 in assay [1] came to 5.23 µM; in assay [2], 4.7 µM.

Consider `O=C(NCc1ccc(F)nc1)c1ccc2sc(C(F)(F)P(=O)(O)O)c(Br)c2c1` [Compound 133], for which the values for the concentration for half-maximal inhibition (IC50) in assay [1] and in assay [2] were 1.18 µM and 1.45 µM, respectively.

Consider `O=C(NCc1ccc[n+]([O-])c1)c1ccc2sc(C(F)(F)P(=O)(O)O)c(Br)c2c1` [Compound 134], for which the values for the IC50 in assay [1] and in assay [2] were 2.88 µM and 2.4 µM, respectively.

Consider `O=C(NCc1cncc(F)c1)c1ccc2sc(C(F)(F)P(=O)(O)O)c(Br)c2c1` [Compound 135], for which the IC50 was found to be 1.9 µM in assay [1] and 1.92 µM in assay [2].
